# Measured values published in patent publication US8871787B2, “Stable crystalline salt of (R)-3-fluorophenyl-3,4,5-trifluorobenzylcarbamic acid 1-azabicyclo [2.2.2]oct-3-yl ester” (Laboratorios Salvat, S.A., priority 2007, dated 2014).
# Tested on: not listed separately
# Assay: Salt screening of compound I with several acids (aspect of the salt)
# Format: physicochemical
# Conditions: free base and acid in hot ethanol, cooled, solvent evaporated
# Description: To select the most suitable salt of compound I and minimize the undesirable hygroscopic properties of the hydrochloride, several acids were tested. The free base of compound I was dissolved in hot ethanol, and then acid solution in hot ethanol was added. The mixture was then stirred and heated for 30 min. After cooling to room temperature, the solvent was removed by evaporation. […]
row,Molecule,Aspect of the salt
1,CS(=O)(=O)O.O=C(OC1CN2CCC1CC2)N(Cc1cc(F)c(F)c(F)c1)c1cccc(F)c1 (stereo not shown) [Methanesulphonic],Oil
2,CC1(C)C2CCC1(CS(=O)(=O)O)C(=O)C2.O=C(OC1CN2CCC1CC2)N(Cc1cc(F)c(F)c(F)c1)c1cccc(F)c1 [(S)-10-Camphorsulfonic],Oil
3,O=C(O)CCC(=O)O [Succinic],Hygroscopic white foam
4,O=C(O)CC(O)C(=O)O.O=C(OC1CN2CCC1CC2)N(Cc1cc(F)c(F)c(F)c1)c1cccc(F)c1 [L-Malic],Oil
5,O=C(O)C(O)c1ccccc1.O=C(OC1CN2CCC1CC2)N(Cc1cc(F)c(F)c(F)c1)c1cccc(F)c1 [(S)-Mandelic],Oil
6,O=C(O)C(O)C(O)C(=O)O.O=C(OC1CN2CCC1CC2)N(Cc1cc(F)c(F)c(F)c1)c1cccc(F)c1 (racemic),Adding MTBE precipitated a white solid
7,O=C(O)C=CC(=O)O.O=C(OC1CN2CCC1CC2)N(Cc1cc(F)c(F)c(F)c1)c1cccc(F)c1.O=C(OC1CN2CCC1CC2)N(Cc1cc(F)c(F)c(F)c1)c1cccc(F)c1 (stereo not shown) [Fumaric (0.5 eq)],White foam
8,O=C(O)C(=O)O.O=C(OC1CN2CCC1CC2)N(Cc1cc(F)c(F)c(F)c1)c1cccc(F)c1 (stereo not shown) [Oxalic],Hygroscopic white foam
9,O=C(O)CC(O)C(=O)O.O=C(OC1CN2CCC1CC2)N(Cc1cc(F)c(F)c(F)c1)c1cccc(F)c1.O=C(OC1CN2CCC1CC2)N(Cc1cc(F)c(F)c(F)c1)c1cccc(F)c1 (racemic) [DL-Malic (0.5 eq)],Hygroscopic red foam
10,Fumaric,White foam
11,O=C(O)C(O)c1ccccc1.O=C(OC1CN2CCC1CC2)N(Cc1cc(F)c(F)c(F)c1)c1cccc(F)c1 (stereo not shown) [Mandelic],White foam
12,O=C(O)C=CC(=O)O.O=C(OC1CN2CCC1CC2)N(Cc1cc(F)c(F)c(F)c1)c1cccc(F)c1 (stereo not shown) [Maleic],Oil
13,L-Tartaric,White foam
14,O=C(OC1CN2CCC1CC2)N(Cc1cc(F)c(F)c(F)c1)c1cccc(F)c1.O=C1OC(C(O)CO)C(O)=C1O (stereo not drawn) [L(+)-Ascorbic],White foam
15,Citric,Oil
16,CC1(C)C2CCC1(CS(=O)(=O)O)C(=O)C2.O=C(OC1CN2CCC1CC2)N(Cc1cc(F)c(F)c(F)c1)c1cccc(F)c1 (racemic) [(RS)-10-Camphorsulfonic],Hygroscopic pink foam
17,O=C(O)CC(O)C(=O)O.O=C(OC1CN2CCC1CC2)N(Cc1cc(F)c(F)c(F)c1)c1cccc(F)c1.O=C(OC1CN2CCC1CC2)N(Cc1cc(F)c(F)c(F)c1)c1cccc(F)c1 [L-Malic (0.5 eq)],Oil
18,O=C(O)CC(O)C(=O)O.O=C(OC1CN2CCC1CC2)N(Cc1cc(F)c(F)c(F)c1)c1cccc(F)c1 (racemic) [DL-Malic],Hygroscopic red foam
19,O=C(O)CC(O)C(=O)O.O=C(OC1CN2CCC1CC2)N(Cc1cc(F)c(F)c(F)c1)c1cccc(F)c1.O=C(OC1CN2CCC1CC2)N(Cc1cc(F)c(F)c(F)c1)c1cccc(F)c1 [D-Malic (0.5 eq)],Hygroscopic red foam
20,O=C(O)CC(O)C(=O)O.O=C(OC1CN2CCC1CC2)N(Cc1cc(F)c(F)c(F)c1)c1cccc(F)c1 [D-Malic],Hygroscopic red foam
21,CC(O)C(=O)O.O=C(OC1CN2CCC1CC2)N(Cc1cc(F)c(F)c(F)c1)c1cccc(F)c1 (racemic) [DL-Lactic],Oil
22,CC=CC=CC(=O)O.O=C(OC1CN2CCC1CC2)N(Cc1cc(F)c(F)c(F)c1)c1cccc(F)c1 (stereo not shown) [Sorbic],Oil
23,O=C(O)CC(=O)O [Malonic],Oil
24,O=C(O)C(O)C(O)C(=O)O.O=C(OC1CN2CCC1CC2)N(Cc1cc(F)c(F)c(F)c1)c1cccc(F)c1.O=C(OC1CN2CCC1CC2)N(Cc1cc(F)c(F)c(F)c1)c1cccc(F)c1 [D-Tartaric (0.5 eq)],White solid crystal precipitated in EtOH.
25,O=C(OC1CN2CCC1CC2)N(Cc1cc(F)c(F)c(F)c1)c1cccc(F)c1.O=S(=O)(O)c1ccccc1 (stereo not shown) [Benzenesulphonic],Oil
26,O=C(O)C(O)C(O)C(=O)O.O=C(OC1CN2CCC1CC2)N(Cc1cc(F)c(F)c(F)c1)c1cccc(F)c1.O=C(OC1CN2CCC1CC2)N(Cc1cc(F)c(F)c(F)c1)c1cccc(F)c1 [L-Tartaric (0.5 eq)],White foam
27,Propionic,Hygroscopic white foam

# Tested on: patients suffering from Overactive Bladder syndrome
# Assay: Phase II clinical trial: pharmacodynamics in overactive bladder patients (urodynamic assessments, tolerability)
# Conditions: 4 mg o.d., 4 weeks
# Description: A pharmacodynamic study of tarafenacin tartrate in patients suffering from Overactive Bladder syndrome was performed to obtain first efficacy and tolerability data in this population.
# The study was randomised, double-blind, placebo and active-controlled. Patients received tarafenacin tartrate at the dose of 0.1 or 0.2 mg, tolterodine 4 mg or placebo o.d. during 4 weeks, just after a 2 week single-blind wash-out period in which all patients received placebo. Urodynamic assessments were performed at baseline and after 4 weeks administration.
# It was planned to screen approximately 100 patients and randomize 77 patients, to obtain outcome data on 63 patients. Patients who entered the study were randomized into the four treatment groups during the double blind treatment period.
# After a Screening visit and a 14 day washout single blind period (placebo run in), patients were randomized to one of the four treatment arms by a 2:2:2:1 randomization schedule. In a single blind period, only the patients were blinded. During the treatment period, each patient received tarafenacin tartrate 0.1 mg/tarafenacin tartrate 0.2 mg/tolterodine (ER) 4 mg/placebo. Identical capsules were used to maintain the study blind.
# The end of study procedures were performed at the Day 28 visit (End of Treatment [EOT]). A study follow up was conducted at Day 35 either telephonically or the patient was called to the clinic (End of Study [EOS]).
# The primary endpoint was the pharmacodynamic endpoints and they were assessed as the mean change from baseline to Day 28 in urodynamic, salivary flow, and accommodation near point pharmacodynamic assessments.
row,Molecule,incidence of treatment emergent adverse events [%]
1,"Cc1ccc(O)c([C@H](CCN(C(C)C)C(C)C)c2ccccc2)c1 [tolterodine, reference compound]",36

# Same assay, conditions: human, in vivo
Molecule,increase in infused volume [mL],increase in volume at first desire to void [mL],increase in volume at strong desire to void [mL]
"Cc1ccc(O)c([C@H](CCN(C(C)C)C(C)C)c2ccccc2)c1 [tolterodine, reference compound]",20,33,42
